Data published in the supplement of paper PMC10307832.

Experiments:
Assay in all cases: relative viability (nuclei count vs DMSO), 5 days (fraction); higher = more cells survive
[1] = compound: CC(O)(CS(=O)(=O)c1ccc(F)cc1)C(=O)Nc1ccc(C#N)c(C(F)(F)F)c1 [Bicalutamide] + CC(=O)Nc1cccc(-n2c(=O)n(C3CC3)c(=O)c3c(Nc4ccc(I)cc4F)n(C)c(=O)c(C)c32)c1 [Trametinib] (partner 0.02 µM)
Outline: (§1)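 Lung cancer cell lines in 1536-well plates were dosed by pin tool the day after seeding, either with one drug alone or with a fixed anchor-drug dose plus five library-drug doses (not always all listed) in √10 steps. After 5 days, cells were fixed and their nuclei stained in one step (final 0.05% Triton X-100, 1% formaldehyde, 1 ug/ml Hoechst), then counted on 4× images. Relative viability is the nuclei count in treated wells divided by that in vehicle wells. Values are medians of duplicate plates.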

[2] = compound: C(C(=O)C(=O)O)Br [Bromopyruvate] + O=C(CCCCCCC(=O)Nc1ccccc1)NO [Vorinostat] (partner 1 µM)
Outline: as §1

[3] = compound: CC(O)(CS(=O)(=O)c1ccc(F)cc1)C(=O)Nc1ccc(C#N)c(C(F)(F)F)c1 [Bicalutamide] + CC1(C)CCC(c2ccc(Cl)cc2)=C(CN2CCN(c3ccc(C(=O)NS(=O)(=O)c4ccc(N[C@H](CCN5CCOCC5)CSc5ccccc5)c(S(=O)(=O)C(F)(F)F)c4)cc3)CC2)C1 [Navitoclax] (partner 0.5 µM)
Outline: as §1

[4] = compound: C(C(=O)C(=O)O)Br [Bromopyruvate] + COc1cc2c(Oc3ccc(NC(=O)C4(C(=O)Nc5ccc(F)cc5)CC4)cc3F)ccnc2cc1OCCCN1CCOCC1 [Foretinib] (partner 0.25 µM)
Outline: as §1

Cell Line	relative viability ([1]; first compound 0.08 µM)	relative viability ([1]; first compound 0.253 µM)	relative viability ([1]; first compound 0.8 µM)	relative viability ([1]; first compound 2.53 µM)	relative viability ([2]; first compound 1 µM)	relative viability ([2]; first compound 3.162 µM)	relative viability ([2]; first compound 10 µM)	relative viability ([2]; first compound 31.62 µM)	relative viability ([2]; first compound 100 µM)	relative viability ([3]; first compound 0.08 µM)	relative viability ([3]; first compound 0.253 µM)	relative viability ([3]; first compound 0.8 µM)	relative viability ([3]; first compound 2.53 µM)	relative viability ([4]; first compound 1 µM)	relative viability ([4]; first compound 3.162 µM)	relative viability ([4]; first compound 10 µM)	relative viability ([4]; first compound 31.62 µM)	relative viability ([4]; first compound 100 µM)
HCC-44	1.16	1.09	1.07	1.1	1.12	1.04	1.07	1.1	1.13	0.921	0.949	0.924	0.982					
HCC-78	0.94	0.653	0.86	0.779	0.493	0.443	0.444	0.404	0.427	0.825	0.862	0.893	0.687	0.55	0.533	0.589	0.539	0.532
HCC-366	0.388	0.231	0.454	0.284	0.375	0.368	0.408	0.307	0.227	1.08	1.03	1.17	1.02	0.927	0.976	0.961	0.759	0.963
HCC-827	0.58	0.459	0.552	0.547	0.844	0.982	0.968	0.886	0.741	1.04	0.971	1.02	1.02	1.05	1.02	1.02	1.08	1.08
HOP-62	0.396	0.403	0.427	0.354	0.716	0.579	0.569	0.534	0.428	1.03	1.12	1.03	0.982	1.12	1.17	1.12	0.95	0.815
IA-LM					0.964	0.975	1.15	0.861	0.696	0.945	0.876	0.99	0.751	1.12	1.19	1.07	1.17	0.914
LC-2-ad	0.892	0.86	0.961	0.907	0.706	0.631	0.72	0.645	0.575	0.484	0.484	0.449	0.475	0.922	0.99	1.01	0.914	0.988
LCLC-103H	0.705	0.676	0.697	0.704	0.762	0.757	0.818	0.821	0.691					0.568	0.748	0.97	0.797	1.02
NCI-H358	0.161	0.128	0.125	0.132	0.77	0.607	0.626	0.541	0.505					0.764	0.71	0.761	0.598	0.653
NCI-H522	0.661	0.723	0.813	0.8	0.93	1.02	1.02	0.799	0.763									
NCI-H650	1.04	1.01	1.12	0.934	0.438	0.487	0.411	0.441	0.392					1.04	1.03	1.16	1.01	0.948
NCI-H661	0.631	0.534	0.621	0.558	0.767	0.798	0.779	0.712	0.712					1.02	1.02	1.05	1.02	0.994
NCI-H1299										1.02	1.04	1.03	1.04	1.16	1.13	1.16	1.14	1.09
NCI-H1563														0.869	1.11	0.946	0.879	0.901
NCI-H1623														0.897	0.879	0.99	0.927	0.987
NCI-H1648			0.395	0.546	0.324	0.566	0.563	0.766	0.314									
NCI-H1703										0.998	0.985	1.45	0.484	0.327	0.397	0.364	0.367	0.356
NCI-H1792	0.439	0.362	0.542	0.434						0.5	0.619	0.77	0.674					
NCI-H2342	0.771	0.807	0.768	0.805	0.807	0.806	0.7	0.622	0.684					1.09	1.18	1.01	0.853	1.04
SW 900	0.778	0.678	0.756	0.809	0.393	0.487	0.559	0.377	0.476					0.902	0.955	0.665	0.84	0.898
